From patent US20220040230A1, “COMPOSITIONS AND METHODS FOR IMMUNOTHERAPIES” (The Regents of the University of California, priority 2018, published 2022)

Legend:
OSCSCs = experiment: Chemotherapy-mediated cell death of OSCSCs; format: cell-based, human
OSCCs = experiment: Chemotherapy-mediated cell death of OSCCs; format: cell-based, human
PL12 = experiment: Propidium iodide cell death assay, PL12
[1] = system: NK-supernatant differentiated MP2 tumors; experiment: Propidium iodide cell death assay, NK-supernatant differentiated MP2; format: cell-based, human
Method: (§1) P-values of <0.05 were obtained for differences between MP2 vs. PL12 and Capan at the concentrations of 10 nM, 200 nM, 600 nM, 1000 nM and […] of Paclitaxel (n=2 per each experimental condition) (FIG. 25A).
Differentiation of MP2 tumors was conducted as described previously. NK cells were treated with a combination of anti-CD16mAb (3 μg/mL) and IL-2 (1,000 U/mL) for 18 hours before supernatants were removed and used for differentiation experiments. The amounts of IFN-γ produced by activated NK cells were assess with IFN-γ ELISA (Biolegend, CA, USA). MP2 cells were differentiated with gradual daily addition of increasing amounts of NK cell supernatants (of corresponding treatments). On average, to induce differentiation, a total of 3,500 pg of IFN-γ containing supernatants were added for 4 days to induce differentiation and resistance of MP2 tumor cells to NK cell-mediated cytotoxicity. Afterwards, target cells were washed with 1×PBS, detached and used for experiments.

Capan = experiment: Propidium iodide cell death assay, Capan
MP2 [2] = experiment: Propidium iodide cell death assay, MP2; format: cell-based, human; conditions: NAC (20 nM) 24 hours before paclitaxel
Method: as §1

MP2 [3] = experiment: Surface expression on MP2 by flow cytometry; format: cell-based, human; conditions: 24 h
Method: MP2 cells were left untreated or treated with rhTNF-α (20 ng/mL), rhIFN-γ (200 U/mL) or the combination of rhTNF-α (20 ng/mL) and rhIFN-γ (200 U/mL) for 24 h. Afterwards, the cells were detached and the surface expression of CD44, CD54, MHC-class I and B7H1 were assessed using PE conjugated antibodies followed by flow cytometric analysis. Isotype controls were used as controls (FIG. 14A). MP2 and Capan cells were treated as described in FIG. 14A, and were detached from the tissue culture plates, labeled with ^51Cr and used in a standard 4-hour ^51Cr release assay using IL-2 (1000 U/mL) treated NK cells. Pre-treatment of NK cells with IL-2 (1000 U/ml) were carried out for 18-24 hours. Percent cytotoxicity was determined at different effector to target ratio and the lytic units 30/10^6 cells were determined using inverse number of NK cells required to lyse 30% of the tumor cells×100 (FIG. 14B).
Staining was performed by labeling the cells with antibodies as described previously. Briefly, the cells were washed twice with ice-cold PBS/1% BSA. Predetermined optimal concentrations of specific human flow cytometric antibodies were added to 1×10^4 cells in 50 μl of cold-PBS/1% BSA and cells were incubated on ice for 30 min. […] Flow cytometry analysis was performed using Beckman Coulter Epics XL cytometer (Brea, Calif.) and results were analyzed in FlowJo vX software (Ashland, Oreg.).

MP2 [4] = experiment: 4-hour 51Cr release cytotoxicity / ADCC assay against MP2; format: cell-based, human; conditions: IL-2 treated NK cells; tumor cells treated 24 h
Method: The target cells (5×10^5) were labeled with 50 μCi ^51Cr (Perkin Elmer, Santa Clara, Calif.) and chromated for 1 hour. Following incubation, target cells were washed once to remove excess unbound ^51Cr. […] Following incubation, target cells were washed again to remove excess unbound antibody and ^51Cr. Labeled target cells were culture with effector cells and the cytotoxicity against target cells were assessed using ^51Cr release cytotoxicity assay.
^51Cr Release Cytotoxicity Assay ^51Cr was purchased from Perkin Elmer (Santa Clara, Calif.). Standard ^51Cr release cytotoxicity assays were used to determine NK cell cytotoxic function in the experimental cultures. […] After a 4-hour incubation period, the supernatants were harvested from each sample and counted for released radioactivity using the gamma counter. Total (containing ^51Cr labeled target cells) and spontaneous (supernatants of target cells alone) release values were measured and used to calculate the percentage specific cytotoxicity. The percentage specific cytotoxicity was calculated using the following formula: […]
Lu30/10^6 is calculated by using the inverse of the number of effector cells needed to lyse 30% of target cells×100.
The ^51Cr release assay was performed as described previously. […] The percentage specific cytotoxicity was calculated using the following formula: […]

[5] = NAC (20 nM) 24 hours before paclitaxel

N.N.[Cl][Pt][Cl] [CDDP, cis-dichlorodiammineplatinum]
cell death of stem-like/poorly differentiated OSCSCs (OSCSCs): minimal effects | cell death of patient-derived differentiated OSCCs (OSCCs): higher cell death

CC(=O)O[C@H]1C(=O)[C@@]2(C)[C@H]([C@H](OC(=O)c3ccccc3)[C@]3(O)C[C@H](OC(=O)[C@H](O)[C@@H](NC(=O)c4ccccc4)c4ccccc4)C(C)=C1C3(C)C)[C@]1(OC(C)=O)CO[C@@H]1C[C@@H]2O [paclitaxel]
paclitaxel mediated cell death of PL12 (PL12; compared with MP2): higher levels of cell death | cell death of stem-like/poorly differentiated OSCSCs (OSCSCs): minimal effects | paclitaxel mediated cell death of NK-supernatant differentiated MP2 [1]: susceptibility to paclitaxel | paclitaxel mediated cell death of Capan (Capan; compared with MP2): higher levels of cell death | cell death of patient-derived differentiated OSCCs (OSCCs): higher cell death

CC(=O)N[C@@H](CS)C(=O)O [NAC, N-Acetyl Cysteine]
effect of NAC on paclitaxel mediated cell death of PL12 (PL12; [5]): increased paclitaxel mediated cell death | effect of NAC on cell death of NK-supernatant differentiated MP2 [1, 5]: increased cell death | effect of NAC on paclitaxel mediated cell death of Capan (Capan; [5]): increased paclitaxel mediated cell death | effect of NAC on paclitaxel mediated cell death of MP2 (MP2 [2]): increased paclitaxel mediated cell death

rhIFN-γ: Recombinant human IFN-γ from Biolegend
surface expression of B7H1 on MP2 (MP2 [3]): upregulate B7H1 | surface expression of CD54, MHC-class I, B7H1 and CD44 on MP2 (MP2 [3]; rhTNF-α 20 ng/mL, rhIFN-γ 200 U/mL): increase surface expression of CD54 and MHC-class I

B1: rhIFN-γ: Recombinant human IFN-γ from Biolegend (protein, UniProt P01579 24-161, looked up)
Interferon gamma: QDPYVKEAENLKKYFNAGHSDVADNGTLFLGILKNWKEESDRKIMQSQIVSFYFKLFKNFKDDQSIQKSVETIKEDMNVKFFNSNKKKRDDFEKLTNYSVTDLNVQRKAIHELIQVMAELSPAAKTGKRKRSQMLFRG
resistance of MP2 against NK cell mediated cytotoxicity (MP2 [4]): significant resistance
